row,Compound,melting point [°C]
1,Clc1cccnc1-c1ccc2[nH]nc(Nc3cnccn3)c2c1,228 to 230
2,CN(C)C=Nc1c(Cl)cc(NCc2ccc(N(C)C)cc2Br)cc1Cl,135 to 137
3,O=C(NCC(F)(F)F)C1(CCCCc2ccc(NS(=O)(=O)c3ccc([N+](=O)[O-])cc3)cc2)c2ccccc2-c2ccccc21,136 to 138
4,CCCCCCCCc1ccc(C#Cc2c3ccccc3c(C#Cc3ccc(CCCCCCCC)cc3)c3ccccc23)cc1,131 to 133
5,Cc1cnc2c(NC(=O)c3c(Cl)cccc3Cl)cccc2c1-n1ccnc1,224 to 228
6,CC[C@@H](C)[C@@H]1NC(=O)OC1(c1ccccc1)c1ccccc1,221 to 223
7,O=C(NCCc1cccs1)c1cc(Cl)ccc1Cl,99 to 100
8,Cc1cc2[nH]c(C)nc(NCCN3CCOCC3)c-2n1,237 to 238
9,COC(=O)C(=O)C(CCCc1ccccc1)CS(=O)(=O)c1ccc(OC)cc1 (configuration not stated),95
10,COCc1cc2c([N+](=O)[O-])cccc2cn1,91
11,CN(C)c1ccc(NC(=O)Nc2ccc3c(ccn3C)c2)cn1,220 to 226
12,CC(C)c1nc(-c2ccc(/C=C/C3(O)CN4CCC3CC4)cc2)no1 (configuration not stated),142 to 144
13,CCCOc1ccc(CNC=C2C(=O)N(O)C(=O)c3ccccc32)cc1O,176 to 178
14,O=S(=O)(Nc1ccc(C(F)(F)F)nc1I)c1ccccc1,131
15,CC(C)(C)OC(=O)Cn1c(C(=O)O)cc2ccccc21,156 to 157
16,COc1ccc(C2CC[N+]([O-])(CCC3CCOc4ccccc43)CC2)cc1OC (configuration not stated),97
17,CC1(C)OC2OC(C3NC(=O)CC3O)C(O)C2O1 (configuration not stated),263 to 265
18,Nc1ccc(S(=O)(=O)c2cnc(N)s2)cc1,218 to 219
19,O=C(Cl)c1sc2cc(OCc3ccccc3)ccc2c1Cl,132 to 134
20,CN1C2CCC1CC(O)(c1ccc(Cl)cc1)C2 (configuration not stated),186 to 187
21,CN1C(=O)C2(COc3cc4c(cc32)OCO4)c2c(C3CCOC3)cccc21 (configuration not stated),182 to 184
22,COc1cc(Cc2cnc(N)nc2N)cc(OC)c1C(C)(C)O,183 to 185
23,CCc1nc(OC)c(NC(=O)N2CCN(c3cc(C)cc(C)c3)CC2)cc1C,135 to 136
24,COc1ccc(C(=O)c2sc(Nc3ccc(OCc4ccccc4)cc3)nc2N)cc1,222 to 224
25,COc1cc2c(=O)n(Cc3ccc([N+](=O)[O-])cc3)c3cc(OC)c(OC)cc3c2cc1OC,199 to 200
26,CC(=O)NC(C)c1ccc(CN2CCN(c3cccc(F)n3)CC2)cc1 (configuration not stated),109 to 111

row,Compound,melting point [°C]
1,CC(C)(C)c1ccc(-n2cc(C(=O)O)c(=O)c3ccc(-c4ccncc4)cc32)cc1,251 to 252
2,CCOC(=O)CSc1ccc([N+](=O)[O-])cc1,43 to 45
3,CC(C)C(NC(=O)OCc1ccccc1)(C(=O)OCc1ccccc1)C1CO1 (configuration not stated),74 to 76
4,O=C(c1cc2cc([N+](=O)[O-])ccc2[nH]1)N1CCC(Cc2ccccc2)CC1,220 to 224
5,"c1ccc(-c2ccc(C3CN4CCC3CC4)cc2)cc1 (single isomer, unassigned; (+))",85 to 86
6,COc1nc(C)cnc1NS(=O)(=O)c1cccnc1-c1ccc(OCCO)cc1,180 to 182
7,CC(=O)c1c(NC(C)(C)C)nc(NC(C)(C)C)c(Br)c1C,99 to 100
8,O=C(Nc1ccc(OCc2ccccc2)cc1)C(Br)CCBr (racemic),140 to 142
9,CCCCOc1ccccc1C(O)CNC(C)Cc1ccc(OC)c(OC)c1 (configuration not stated),119 to 121
10,CCc1nc2c(cnn2CC)c(NC2CCOCC2)c1CNC(=O)c1cccc(C(=O)O)c1,207 to 209
11,CSc1ncc(C(=N)NO)cc1Cl,139 to 143
12,Cn1cnnc1Sc1nc(-c2ccc(Cl)cc2)c(CCC(=O)O)o1,186 to 188
13,CCCCNc1c(C(=O)OCC)c(C)nc2[nH]c(O)nc12,249 to 252
14,CC(C)OC(=O)Cc1nc(-c2ccc(Cl)cc2)oc1-c1ccco1,96 to 97
15,O=c1[nH]c(-c2ccc(CCCl)cc2)cs1,226 to 229
16,O=C(CCCCCBr)c1c[nH]c2ccccc12,150 to 151
17,NC(=NCC(F)(F)F)Nc1ccnc(OCCn2ccnc2)n1,149 to 150
18,COc1cnc(OC(c2ccccc2)(c2ccccc2)c2ccccc2)cc1OC1CCCC1,132 to 133
19,CCOC(=O)N1CCN(CCNc2ncnc3c2sc2nc(-c4ccco4)c4c(c23)CC(C)(C)CC4)CC1,99.1 to 101
20,Cc1cccc2c1N(CC(=O)N1CC3CCC(CC3)C1)C(=O)C(NC(=O)Nc1cccc(C=NO)c1)N=C2c1ccccc1F (configuration not stated),196 to 199
21,COc1ccc(C2(C#Cc3ccc(Cl)cc3)CCC(=O)CC2)cc1OC1CCCC1,104 to 105
22,Cc1n[nH]c2cc(F)c(C3C(C#N)=C(C(F)F)NC(C(F)F)=C3C#N)cc12,282
23,C#CCN1C(=O)N(c2ccc(C#N)c(C(F)(F)F)c2)C(=O)C1(CO)CO,125 to 126
24,CN(C)C=Nc1sc(C#N)c(Cl)c1C#N,226
25,CN(C)C(=O)c1ncn2c1CC(=O)N(c1ccccc1)c1cc(Cl)ccc1-2,255 to 257
26,Cc1c(C)c2c(c(C)c1NC(=O)OC(C)(C)C)C(=O)C(C)(C)O2,105 to 106

row,Compound,melting point [°C]
1,CC(Cl)C(=O)Oc1coccc1=S (configuration not stated),118 to 119
2,CN1CCN(c2nc(C(F)(F)F)cs2)CC1,62
3,NS(=O)(=O)c1cc(OC(F)F)ccc1OC(F)F,73 to 74
4,O=Cc1c(Br)n(C2OC(CO)C(O)C2O)c2cc(Cl)c(Cl)cc12 (configuration not stated),210 to 211
5,CC(C)(C)OC(=O)N1CCC(C#N)(CCl)CC1,114 to 116
6,CCOc1c(C)cccc1-c1nc2ccc(C(=O)O)cc2c(=O)[nH]1,240 to 241
7,Cn1ncc(/C=C/C(=O)Nc2ccc(Cn3ccnc3)cc2)c1-c1ccc(F)cc1,213 to 214
8,N#Cc1c(-c2cccc(N)c2)cc(-c2ccccc2O)nc1NC(=O)c1ccc(Cl)s1,259 to 260
9,CSc1csc(NC(=O)c2ccc(OC(C)=O)cc2)n1,186 to 189
10,OCCSC(=S)Nc1ccccn1,88
11,C=COCCONC(=O)c1ccc(F)cc1Nc1ccc(I)cc1F,104
12,Nc1ncnc2c1ncn2CC(=O)Nc1ccc(-n2nc(C(F)(F)F)cc2C2CC2)cc1,249 to 252
13,CN(C)CCCN(C)C(=O)NC(Cc1c[nH]c2ccccc12)C(=O)CCc1cc(C(F)(F)F)cc(C(F)(F)F)c1 (configuration not stated),135 to 137
14,CN1C(=N)N(c2ccc(Cl)cc2)CC1=O,182 to 184
15,NCC1Cc2cccc(Nc3cc(Cl)cc(Cl)c3)c2O1 (configuration not stated),> 250
16,COc1ccc(CCN(C)CCCCc2ccc(NC(=O)c3cccc4c(=O)c5ccccc5oc34)cc2)cc1OC,102
17,Cc1nnc(SCC2=C(C(=O)OC(c3ccccc3)c3ccccc3)N3C(=O)C(N)C3SC2)s1 (configuration not stated),157 to 159
18,CCOC(=O)c1cc(=O)c(Sc2ccccc2)co1,79 to 81
19,CCn1cc(C(=O)O)c(=O)c2cc(F)c(N3CCC(NC)C3)nc21 (configuration not stated),242
20,CCCCCCC(C)(C)c1cc(OC)c(C2=C[C@@]3(C)CC[C@@H]2C3(C)C)c(OC)c1,32 to 33
21,CC(=O)c1ccc(N2CCC(N(C)Cc3ccc(F)cc3)CC2)cc1,133
22,COc1ccc(CC(=Nc2ccccc2)NC(=S)NCc2cccnc2)cc1,175 to 176
23,O=C(C=Cc1ccccc1-c1ccccc1)c1ccccc1,190
24,CNc1nc(C)c(-c2ccnc(Nc3cccc(CNC(C)=O)c3)n2)s1,253 to 255
25,O=C1CCOc2c(O)cccc21,93 to 96
26,C[Si](C)(C)C#CCn1nc(-c2ccc(F)c(Br)c2)ncc1=O,103 to 105

row,Compound,melting point [°C]
1,CCOC(=O)c1ccc(N2CCN(c3ccncc3)CC2)cc1,162 to 164
2,O=C1OCCN1C(=O)c1ccccc1,166 to 170
3,COC(=O)c1cc(Cl)c(C)c(N)c1Cl,53 to 55
4,COC=C(C(=O)OC)c1ccccc1CON=C(C)c1noc2ccccc12,97 to 98
5,COc1cc(C(=O)c2c(C)c(OCCO)c3ccccn23)ccc1[N+](=O)[O-],142
6,CCN1c2cc(C)c(C)cc2N(C)C(=O)c2cccnc21,140 to 144
7,Cc1cn(NCCCc2ccncc2F)c2ccc(OC(=O)NN3CCc4ccccc4C3)cc12,157 to 160
8,O=C1NCC=NN1c1cc(Cl)c(Cc2ccc(C(O)c3ccc(Cl)nc3)cc2)c(Br)c1 (configuration not stated),167 to 169
9,COC(=O)Cc1ccc(OCCNC(=O)C2Cc3ccccc3N2S(=O)(=O)c2ccc(-c3cc(C)ccc3C)cc2)cc1 (configuration not stated),56 to 59
10,COC(=O)N(O)c1cccnc1Oc1ccccc1,140
11,CC(C)C1=C(C#N)C(c2ccccc2Br)c2c(n[nH]c2CC#N)N1 (configuration not stated),> 250
12,Fc1cccc(/C=C/C2=CCN(Cc3c[nH]c4ncccc34)CC2)c1,199 to 201
13,CC(C)N1CCC(Nc2cccnc2)CC1,101
14,CSc1ccc(-n2cnc3ccc(-c4nnc(N)o4)cc32)cc1,254 to 255
15,Cc1cc(NNC(=O)Nc2ccc(N(CCCl)CCCl)cc2)c2ccccc2n1,235 to 236
16,CC(=Cc1cccc(F)c1)C(=O)O,95 to 97
17,Cc1cc2c(cc1N1CCCCCC1)OC(=O)C2C (configuration not stated),58 to 60
18,O=C1NC(=O)C(Cc2ccc(S(=O)(=O)CCCc3ccccc3)cc2)S1 (configuration not stated),126 to 127
19,Cc1ccccc1COC1COC(CCl)OC1 (configuration not stated),62 to 63
20,CC1(C(=O)Nc2ccc(OCC3CC3)c(C(F)(F)F)c2)CC1,84 to 85
21,Cn1c([N+](=O)[O-])cnc1CSc1ccccn1,108
22,CN(C)Cc1cc(-c2ccccc2)c2c(n1)OCCN(Cc1cc(C(F)(F)F)cc(C(F)(F)F)c1)C2=O,186 to 188
23,Clc1ccccc1Oc1ccnc2c(Cl)cccc12,56 to 58
24,CC(C)CC(C(=O)O)C(=O)O,102 to 105
